Reference: the NIST ThermoML archive (doi:10.1016/j.jct.2004.11.013)

Key:
[1] = φn = volume fraction of the nth substance listed; details: 303.15 K, 101.33 kPa, Liquid, Linear variable-path acoustic interferometer
[2] = Liquid; for speed of sound / mass density: 303.15 K, 101.33 kPa; for speed of sound: Linear variable-path acoustic interferometer; for mass density: Pycnometric method
[3] = xn = mol fraction of the nth substance listed; details: 303.15 K, 101.33 kPa, Liquid, Direct dilatometry

BrCCBr [1,2-dibromoethane] + ClC=C(Cl)Cl
Details | speed of sound [m/s]
[1], φ1 = 1 | 984

ClC(Cl)=C(Cl)Cl [tetrachloroethene] + BrCCBr
Details | speed of sound [m/s]
[1], φ2 = 0 | 1027.8

ClC(Cl)=C(Cl)Cl [tetrachloroethene]
[2]
Details | Normal boiling temperature [°C] | mass density [kg/m3] | speed of sound [m/s]
– | 121.30 | 1606.36 | 1027.8

ClCCCl [1,2-dichloroethane]
[2]
Details | Normal boiling temperature [°C] | mass density [kg/m3] | speed of sound [m/s]
– | 83.6 | 1238.28 | 1173.3

ClCCCl [1,2-dichloroethane] + BrCCBr
Details | speed of sound [m/s]
[1], φ2 = 0 | 1173.3

BrCCBr [1,2-dibromoethane] + ClC(Cl)=C(Cl)Cl
Details | excess molar volume [m3/mol] | speed of sound [m/s]
[1], φ1 = 0.0955 | – | 1010.1
[1], φ1 = 0.2327 | – | 992.8
[1], φ1 = 0.321 | – | 985.8
[1], φ1 = 0.4381 | – | 980.4
[1], φ1 = 0.5881 | – | 975.3
[1], φ1 = 0.6802 | – | 975.1
[1], φ1 = 0.7639 | – | 973.7
[1], φ1 = 0.8904 | – | 978.1
[1], φ1 = 1 | – | 984
[3], x1 = 0.1133 | 3e-07 | –
[3], x1 = 0.2647 | 4.61e-07 | –
[3], x1 = 0.3594 | 4.72e-07 | –
[3], x1 = 0.4806 | 4.4e-07 | –
[3], x1 = 0.6289 | 3.66e-07 | –
[3], x1 = 0.7163 | 3.1e-07 | –
[3], x1 = 0.7934 | 2.55e-07 | –
[3], x1 = 0.906 | 1.43e-07 | –

ClC(Cl)C(Cl)Cl [1,1,2,2-tetrachloroethane]
[2]
Details | Normal boiling temperature [°C] | mass density [kg/m3] | speed of sound [m/s]
– | 146.10 | 1578.57 | 1133.1

CC(Cl)(Cl)Cl [1,1,1-trichloroethane]
[2]
Details | Normal boiling temperature [°C] | mass density [kg/m3] | speed of sound [m/s]
– | 74 | 1320.92 | 943.2

CC(Cl)(Cl)Cl [1,1,1-trichloroethane] + BrCCBr
Details | excess molar volume [m3/mol] | speed of sound [m/s]
[1], φ2 = 0 | – | 943.2
[1], φ2 = 0.0787 | – | 942.1
[1], φ2 = 0.1718 | – | 942.1
[1], φ2 = 0.2457 | – | 944.6
[1], φ2 = 0.3811 | – | 950.4
[1], φ2 = 0.4866 | – | 958.1
[1], φ2 = 0.595 | – | 961
[1], φ2 = 0.6486 | – | 965.1
[1], φ2 = 0.8532 | – | 973.6
[3], x2 = 0.0902 | -7.3e-08 | –
[3], x2 = 0.1941 | -1.2e-07 | –
[3], x2 = 0.2744 | -1.33e-07 | –
[3], x2 = 0.4169 | -1.11e-07 | –
[3], x2 = 0.5239 | -6.4e-08 | –
[3], x2 = 0.6304 | -6e-09 | –
[3], x2 = 0.6818 | 2.1e-08 | –
[3], x2 = 0.8709 | 6.9e-08 | –

BrCCBr [1,2-dibromoethane] + CC(Cl)(Cl)Cl
Details | speed of sound [m/s]
[1], φ1 = 1 | 984

BrCCBr [1,2-dibromoethane] + ClCCCl
Details | excess molar volume [m3/mol] | speed of sound [m/s]
[1], φ1 = 0.1012 | – | 1149.2
[1], φ1 = 0.1885 | – | 1125
[1], φ1 = 0.2842 | – | 1101.8
[1], φ1 = 0.3697 | – | 1079.6
[1], φ1 = 0.5106 | – | 1047.3
[1], φ1 = 0.6049 | – | 1029.8
[1], φ1 = 0.7908 | – | 1001.3
[1], φ1 = 0.8724 | – | 993
[1], φ1 = 1 | – | 984
[3], x1 = 0.0938 | 1.7e-08 | –
[3], x1 = 0.1759 | 3e-08 | –
[3], x1 = 0.2673 | 4.2e-08 | –
[3], x1 = 0.3502 | 4.7e-08 | –
[3], x1 = 0.4894 | 5.2e-08 | –
[3], x1 = 0.5845 | 5.1e-08 | –
[3], x1 = 0.7764 | 3.5e-08 | –
[3], x1 = 0.8626 | 2.5e-08 | –

ClC=C(Cl)Cl [trichloroethene] + BrCCBr
Details | excess molar volume [m3/mol] | speed of sound [m/s]
[1], φ2 = 0 | – | 1013.7
[1], φ2 = 0.0922 | – | 1000.5
[1], φ2 = 0.2012 | – | 990.5
[1], φ2 = 0.2951 | – | 982.5
[1], φ2 = 0.4462 | – | 973.5
[1], φ2 = 0.54 | – | 971.2
[1], φ2 = 0.6986 | – | 968.2
[1], φ2 = 0.7836 | – | 972.4
[1], φ2 = 0.8885 | – | 975.9
[3], x2 = 0.0956 | 6.3e-08 | –
[3], x2 = 0.2077 | 1.29e-07 | –
[3], x2 = 0.3035 | 1.74e-07 | –
[3], x2 = 0.4561 | 2.09e-07 | –
[3], x2 = 0.5499 | 2.08e-07 | –
[3], x2 = 0.7069 | 1.64e-07 | –
[3], x2 = 0.7903 | 1.25e-07 | –
[3], x2 = 0.8924 | 6.4e-08 | –

BrCCBr [1,2-dibromoethane]
[2]
Details | Normal boiling temperature [°C] | mass density [kg/m3] | speed of sound [m/s]
– | 131.50 | 2159.67 | 984

ClC=C(Cl)Cl [trichloroethene]
[2]
Details | Normal boiling temperature [°C] | mass density [kg/m3] | speed of sound [m/s]
– | 87.2 | 1451.34 | 1013.7

ClC(Cl)C(Cl)Cl [1,1,2,2-tetrachloroethane] + BrCCBr
Details | speed of sound [m/s]
[1], φ2 = 0 | 1133.1

BrCCBr [1,2-dibromoethane] + ClC(Cl)C(Cl)Cl
Details | excess molar volume [m3/mol] | speed of sound [m/s]
[1], φ1 = 0.0736 | – | 1123.4
[1], φ1 = 0.1308 | – | 1112.7
[1], φ1 = 0.2625 | – | 1092.9
[1], φ1 = 0.3958 | – | 1069.6
[1], φ1 = 0.4864 | – | 1054.5
[1], φ1 = 0.6302 | – | 1031.7
[1], φ1 = 0.7156 | – | 1019.7
[1], φ1 = 0.895 | – | 995
[1], φ1 = 1 | – | 984
[3], x1 = 0.0885 | -5.2e-08 | –
[3], x1 = 0.1554 | -9e-08 | –
[3], x1 = 0.3032 | -1.56e-07 | –
[3], x1 = 0.4447 | -1.71e-07 | –
[3], x1 = 0.5365 | -1.56e-07 | –
[3], x1 = 0.6757 | -9.8e-08 | –
[3], x1 = 0.7546 | -5.9e-08 | –
[3], x1 = 0.9124 | -3e-09 | –
